Where two headings read alike, the source gives them in different places.

What all share (format): cell-based
The test system of assay [1] is Ras-CVLS processing in COS monkey kidney cells. As to the kind of experiment: COS cell assay: inhibition of Ras-CVLS processing (Western blot).
The test system of assay [2] is DLD-1-BAG human colon carcinoma cells expressing as activated K-ras gene. As to the kind of experiment: Cell Mat Assay, DLD-1 tumor cells.
The subject of assay [3] is Normal human HEPM fibroblasts. Description: Cell Mat Assay, normal cell mat. The settings on record: Homo sapiens, Fibroblast, normal monolayer.

Turning to `NC(=O)N1CCC(CC(=O)N2CCC(C3c4ncc(Br)cc4CCc4cc(Cl)cc(Cl)c43)CC2)CC1` (single isomer, unassigned) [Example 18], 25 nM corresponded to half-maximal inhibition in assay [1] (Primates, COS) (IC50).

On to `O=C(Cc1cc[n+]([O-])cc1)N1CCN([C@H]2c3ncc(Br)cc3CCc3cc(Cl)cc(Br)c32)CC1` [Example 11A], for which the IC50 (usually the concentration at which inhibition is half-maximal) in assay [1] (Primates, COS) was less than 25 nM; in assay [2] (Mat assay) it was less than 1600 nM; in assay [3] it was more than 25000 nM.

With `O=C(Cc1cc[n+]([O-])cc1)N1CCN([C@H]2c3ccc(Cl)c(Br)c3CCc3cc(Br)cnc32)CC1` [Example 5], the IC50 in assay [2] (Homo sapiens, DLD-1, Mat assay) was 3100 nM; in assay [3], more than 25000 nM.

As for `O=C(Cc1cc[n+]([O-])cc1)N1CCC(=C2c3ccc(Cl)c(Br)c3CCc3cc(Br)cnc32)CC1` [Example 2], the IC50 in assay [2] (Homo sapiens, DLD-1, Mat assay) was 6250 nM; in assay [3], more than 25000 nM.

With `O=C(Cc1cc[n+]([O-])cc1)N1CCN([C@@H]2c3ccc(Cl)cc3CCc3cc(Br)cnc32)CC1` [Example 16A], the IC50 in assay [1] (Primates, COS) was 500 nM.

For `O=C(Cc1cc[n+]([O-])cc1)N1CCC([C@H]2c3ncc(Br)cc3CCc3cc(Cl)cc(Br)c32)CC1` [Example 9], the IC50 in assay [1] (Primates, COS) is 10 nM; in assay [2] (Homo sapiens, DLD-1, Mat assay), less than 1600 nM; in assay [3], more than 25000 nM.

For `O=C(Cc1cc[n+]([O-])cc1)N1CCC(C2c3ccc(Cl)c(Br)c3CCc3cc(Br)cnc32)CC1` (single isomer, unassigned) [Example 14A], the concentration for half-maximal inhibition (IC50) in assay [1] was 480 nM; in assay [2] (Homo sapiens, DLD-1, Mat assay) it was 6250 nM; in assay [3], more than 25000 nM.

For `O=C(Cc1cc[n+]([O-])cc1)N1CCN([C@H]2c3ccc(Cl)cc3CCc3cc(Br)cnc32)CC1` [Example 16B], the IC50 in assay [1] (Primates, COS) was 125 nM; in assay [2] (Homo sapiens, DLD-1, Mat assay) it was 6250 nM; in assay [3] it was more than 25000 nM.

Turning to `O=C(Cc1cc[n+]([O-])cc1)N1CCC(=C2c3ncc(Br)cc3CCc3cc(Cl)cc(Br)c32)CC1` (racemic) [Example 7], the IC50 is less than 250 nM in assay [1] (Primates, COS) and more than 25000 nM in assay [3].

With `NC(=O)N1CCC(CC(=O)N2CCC(C3c4ccc(Cl)c(Br)c4CCc4cc(Br)cnc43)CC2)CC1` (single isomer, unassigned) [Example 13], the IC50 in assay [1] came to 420 nM.
